A short description of series [1]: Relative humidity (RH) stress of salts. In kind it is physicochemical. Particulars: solid in open vial, 10 days at 94% RH. The source says: Solids of select Compound 1 salts were exposed to ˜94% RH (ASTM Standard E, 104-85, 1996) for a given period of time by placing the solids into an open vial inside a sealed container. Samples were observed visually for signs of deliquescence after removal from the stress environment.

Series [2] concerns the target p97 (Homo sapiens, UniProt P55072). Put plainly: p97 inhibition assay (ADP glo luminescence). To be noted: ATP 20 μM, p97 20 nM, 37° C. for 15 min. It counts as biochemical. The method, then: The p97 assay is an assay used to determine inhibitory activity of compounds against the p97 complex. Inhibition of activity of the p97 proteosome complex can enable apoptosis and cause elimination of neoplastic cells (cancer cells). The assay follows that of Christianson in Nat. Cell Biol., (2011) 14:93. The reagents used for the p97 assay include an assay buffer which is a mixture of 50 mM TRIS pH 7.5, 20 mM MgCI˜, 0.02% TX-100, 1 mM DTT and 0.2% (v/v) glycerol. The well plate is a Corning 3674, 384w plate. The identification kit is an ADP glo kit (Promega): stop buffer, detection reagent.
The assay is conducted as follows: • Serial dilute compound in DMSO in a 1:3.33-fold 10 point serial dilution. • In each well of 384w plate add the following reagents: • 0.5 μL compound serial diluted in DMSO (Final Conc. 10%) • 2 μL ATP (Final Conc.=20 μM, diluted in assay buffer) • 2.5 μL p97 (Final Conc.=20 nM, diluted in assay buffer). • Incubate at 37° C. for 15 min. • Add 5 μL of stop buffer, incubate at RT for 40 min. • Add 10 μL of detection reagent, incubate at RT for 30 min. • Read luminescence on Envision plate reader. […]
In general terms: ADP-Glo turns the ADP formed in a reaction into a luminescent signal.

pIC50: −log10 of the molar value. Some results are limits rather than exact numbers.

p97, sequence (P55072 whole entry): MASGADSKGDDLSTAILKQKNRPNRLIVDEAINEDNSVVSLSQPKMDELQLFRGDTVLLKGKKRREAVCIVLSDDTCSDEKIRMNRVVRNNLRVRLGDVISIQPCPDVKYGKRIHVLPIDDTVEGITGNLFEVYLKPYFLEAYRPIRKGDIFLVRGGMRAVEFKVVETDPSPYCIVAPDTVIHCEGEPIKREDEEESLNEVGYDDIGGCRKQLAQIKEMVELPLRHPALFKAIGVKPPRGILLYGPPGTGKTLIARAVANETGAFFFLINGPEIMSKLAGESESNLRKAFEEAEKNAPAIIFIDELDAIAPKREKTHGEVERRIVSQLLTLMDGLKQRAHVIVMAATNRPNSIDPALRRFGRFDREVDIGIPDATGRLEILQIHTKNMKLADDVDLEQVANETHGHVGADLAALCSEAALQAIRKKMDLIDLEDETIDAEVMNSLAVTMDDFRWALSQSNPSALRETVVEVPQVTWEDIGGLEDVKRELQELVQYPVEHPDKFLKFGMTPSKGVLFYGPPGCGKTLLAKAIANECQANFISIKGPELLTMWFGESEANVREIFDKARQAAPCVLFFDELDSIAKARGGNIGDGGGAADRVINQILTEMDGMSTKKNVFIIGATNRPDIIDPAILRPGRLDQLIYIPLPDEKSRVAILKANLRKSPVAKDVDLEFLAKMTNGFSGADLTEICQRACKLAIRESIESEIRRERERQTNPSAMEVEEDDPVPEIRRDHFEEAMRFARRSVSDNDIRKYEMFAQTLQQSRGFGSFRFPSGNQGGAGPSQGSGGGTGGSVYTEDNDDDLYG

With `Cc1cc2c(C(N)=O)cccc2n1-c1nc2c(c(NCc3ccccc3)n1)CCCN2.Cl.Cl` [Compound 1 hydrochloride, 1-(4-(benzylamino)-5,6,7,8-tetrahydropyrido[2,3-d]pyrimidin-2-yl)-2-methyl-1H-indole-4-carboxamide hydrochloric acid salt (hydrochloride)], in series [1], the “RH stress: change in appearance/texture (signs of deliquescence, visual)” value was “no apparent change in appearance/texture”. On the same count and under the same terms, the entry for `Cc1cc2c(C(N)=O)cccc2n1-c1nc2c(c(NCc3ccccc3)n1)CCCN2.Cc1ccc(S(=O)(=O)O)cc1.Cc1ccc(S(=O)(=O)O)cc1` [Compound 1 tosylate, 1-(4-(benzylamino)-5,6,7,8-tetrahydropyrido[2,3-d]pyrimidin-2-yl)-2-methyl-1H-indole-4-carboxamide p-toluenesulfonic acid salt (tosylate)] is “no apparent change in appearance/texture”; for `Cc1cc2c(C(N)=O)cccc2n1-c1nc2c(c(NCc3ccccc3)n1)CCCN2.O=S(=O)(O)O.O=S(=O)(O)O` [Compound 1 sulfate, 1-(4-(benzylamino)-5,6,7,8-tetrahydropyrido[2,3-d]pyrimidin-2-yl)-2-methyl-1H-indole-4-carboxamide sulfuric acid salt (sulfate)] it is “no apparent change in appearance/texture”. Broadly, the pIC50 is −log10 of the IC50, conventionally taken in molar units. `Cc1cc2c(C(N)=O)cccc2n1-c1nc2c(c(NCc3ccccc3)n1)CCCN2` [Compound 1, 1-(4-(benzylamino)-5,6,7,8-tetrahydropyrido[2,3-d]pyrimidin-2-yl)-2-methyl-1H-indole-4-carboxamide]: the pIC50 in series [2] was more than 7.52.

The values above are taken from patent publication US12435085B2, “Crystalline forms and formulations of a VCP/p97 inhibitor” (CASI Pharmaceuticals, Inc., priority 2020, dated 2025).
